Test results: ChEMBL document CHEMBL5214957

Columns and labels:
Type in all cases: cell-based
[1] = target: T1, Potassium channel subfamily T member 1 (Homo sapiens, UniProt Q5JUK3); assay: Inhibition of wild-type human Slack expressed in HEK293 cells measured by thallium flux assay
T1 sequence (Q5JUK3 whole entry): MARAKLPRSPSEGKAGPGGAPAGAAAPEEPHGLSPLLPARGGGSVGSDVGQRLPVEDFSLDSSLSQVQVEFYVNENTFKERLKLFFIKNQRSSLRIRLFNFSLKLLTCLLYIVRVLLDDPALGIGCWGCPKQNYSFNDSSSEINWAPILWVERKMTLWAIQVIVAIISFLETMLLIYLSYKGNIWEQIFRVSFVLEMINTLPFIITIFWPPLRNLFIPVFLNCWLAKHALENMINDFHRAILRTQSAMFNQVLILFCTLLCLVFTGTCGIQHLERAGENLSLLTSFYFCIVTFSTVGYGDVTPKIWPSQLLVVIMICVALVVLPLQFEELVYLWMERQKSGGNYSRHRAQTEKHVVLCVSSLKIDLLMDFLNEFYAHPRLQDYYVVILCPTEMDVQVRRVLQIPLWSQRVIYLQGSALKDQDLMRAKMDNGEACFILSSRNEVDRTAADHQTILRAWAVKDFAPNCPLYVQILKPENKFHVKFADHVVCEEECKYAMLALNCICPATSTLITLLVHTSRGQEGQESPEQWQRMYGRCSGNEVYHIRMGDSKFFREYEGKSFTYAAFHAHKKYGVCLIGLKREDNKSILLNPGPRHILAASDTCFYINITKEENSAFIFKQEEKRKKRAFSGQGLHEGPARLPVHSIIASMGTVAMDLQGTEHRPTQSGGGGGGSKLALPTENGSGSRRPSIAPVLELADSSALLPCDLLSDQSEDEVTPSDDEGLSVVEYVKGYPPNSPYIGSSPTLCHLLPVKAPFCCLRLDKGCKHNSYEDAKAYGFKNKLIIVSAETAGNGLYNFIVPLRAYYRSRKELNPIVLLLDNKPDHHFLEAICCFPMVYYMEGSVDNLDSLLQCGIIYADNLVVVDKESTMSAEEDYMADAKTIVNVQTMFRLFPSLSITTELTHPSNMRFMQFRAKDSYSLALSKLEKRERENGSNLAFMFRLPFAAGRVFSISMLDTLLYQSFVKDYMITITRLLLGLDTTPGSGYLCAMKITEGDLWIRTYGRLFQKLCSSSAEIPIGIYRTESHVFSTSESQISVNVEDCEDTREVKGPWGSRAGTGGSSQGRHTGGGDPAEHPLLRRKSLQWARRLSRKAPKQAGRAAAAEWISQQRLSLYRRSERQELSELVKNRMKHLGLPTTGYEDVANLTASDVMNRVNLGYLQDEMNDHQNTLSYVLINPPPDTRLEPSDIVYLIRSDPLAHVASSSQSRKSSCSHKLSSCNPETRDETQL

[2] = target: T1, Potassium channel subfamily T member 1; assay: Activation of wild-type human Slack expressed in HEK293 cells measured by thallium flux assay
[3] = Inhibition of human Slack A934T mutant expressed in HEK293 cells measured by thallium flux assay
[4] = target: T2, Potassium channel subfamily T member 2 (Homo sapiens, UniProt Q6UVM3); assay: Inhibition of Slick (unknown origin) expressed in HEK293 cells measured by thallium flux assay
T2 sequence (Q6UVM3 whole entry): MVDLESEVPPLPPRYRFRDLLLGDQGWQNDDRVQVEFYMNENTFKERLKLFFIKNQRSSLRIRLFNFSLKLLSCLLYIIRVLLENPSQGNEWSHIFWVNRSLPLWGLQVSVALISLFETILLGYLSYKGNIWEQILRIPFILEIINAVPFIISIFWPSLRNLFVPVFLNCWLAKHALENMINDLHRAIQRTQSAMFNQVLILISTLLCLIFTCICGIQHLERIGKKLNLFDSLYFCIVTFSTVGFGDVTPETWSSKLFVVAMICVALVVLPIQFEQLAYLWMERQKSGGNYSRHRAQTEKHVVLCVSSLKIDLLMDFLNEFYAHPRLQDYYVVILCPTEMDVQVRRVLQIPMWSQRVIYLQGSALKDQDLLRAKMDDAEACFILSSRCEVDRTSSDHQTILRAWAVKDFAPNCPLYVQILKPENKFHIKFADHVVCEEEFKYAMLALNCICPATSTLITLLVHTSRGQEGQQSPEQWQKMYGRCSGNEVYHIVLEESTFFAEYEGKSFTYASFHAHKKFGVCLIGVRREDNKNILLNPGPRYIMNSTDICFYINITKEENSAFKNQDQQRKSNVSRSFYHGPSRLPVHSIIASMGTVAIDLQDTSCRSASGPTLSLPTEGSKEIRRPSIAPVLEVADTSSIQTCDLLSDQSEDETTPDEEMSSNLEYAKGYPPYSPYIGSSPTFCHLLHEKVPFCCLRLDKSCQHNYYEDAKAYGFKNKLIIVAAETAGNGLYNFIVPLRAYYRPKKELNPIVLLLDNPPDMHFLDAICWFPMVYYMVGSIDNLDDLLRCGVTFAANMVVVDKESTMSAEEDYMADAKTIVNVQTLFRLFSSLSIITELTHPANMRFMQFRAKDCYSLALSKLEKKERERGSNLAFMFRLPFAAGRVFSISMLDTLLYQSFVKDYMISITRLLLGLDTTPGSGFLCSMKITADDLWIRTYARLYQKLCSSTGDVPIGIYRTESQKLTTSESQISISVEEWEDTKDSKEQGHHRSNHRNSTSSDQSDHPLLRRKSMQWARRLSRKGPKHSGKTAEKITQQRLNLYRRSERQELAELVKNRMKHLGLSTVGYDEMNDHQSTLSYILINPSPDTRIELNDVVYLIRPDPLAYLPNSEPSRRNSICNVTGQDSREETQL

[5] = Inhibition of Slack A934T mutant (unknown origin) expressed in HEK293 cells measured by whole-cell electrophysiology assay; settings: Homo sapiens
[6] = target: T1, Potassium channel subfamily T member 1; assay: Inhibition of wild-type Slack (unknown origin) expressed in HEK293 cells measured by whole-cell electrophysiology assay
[7] = target: T3, Calcium-activated potassium channel subunit alpha-1 (Homo sapiens, UniProt Q12791); assay: Inhibition of Maxi-K (unknown origin) expressed in HEK293 cells measured by thallium flux assay
T3 sequence (Q12791 whole entry): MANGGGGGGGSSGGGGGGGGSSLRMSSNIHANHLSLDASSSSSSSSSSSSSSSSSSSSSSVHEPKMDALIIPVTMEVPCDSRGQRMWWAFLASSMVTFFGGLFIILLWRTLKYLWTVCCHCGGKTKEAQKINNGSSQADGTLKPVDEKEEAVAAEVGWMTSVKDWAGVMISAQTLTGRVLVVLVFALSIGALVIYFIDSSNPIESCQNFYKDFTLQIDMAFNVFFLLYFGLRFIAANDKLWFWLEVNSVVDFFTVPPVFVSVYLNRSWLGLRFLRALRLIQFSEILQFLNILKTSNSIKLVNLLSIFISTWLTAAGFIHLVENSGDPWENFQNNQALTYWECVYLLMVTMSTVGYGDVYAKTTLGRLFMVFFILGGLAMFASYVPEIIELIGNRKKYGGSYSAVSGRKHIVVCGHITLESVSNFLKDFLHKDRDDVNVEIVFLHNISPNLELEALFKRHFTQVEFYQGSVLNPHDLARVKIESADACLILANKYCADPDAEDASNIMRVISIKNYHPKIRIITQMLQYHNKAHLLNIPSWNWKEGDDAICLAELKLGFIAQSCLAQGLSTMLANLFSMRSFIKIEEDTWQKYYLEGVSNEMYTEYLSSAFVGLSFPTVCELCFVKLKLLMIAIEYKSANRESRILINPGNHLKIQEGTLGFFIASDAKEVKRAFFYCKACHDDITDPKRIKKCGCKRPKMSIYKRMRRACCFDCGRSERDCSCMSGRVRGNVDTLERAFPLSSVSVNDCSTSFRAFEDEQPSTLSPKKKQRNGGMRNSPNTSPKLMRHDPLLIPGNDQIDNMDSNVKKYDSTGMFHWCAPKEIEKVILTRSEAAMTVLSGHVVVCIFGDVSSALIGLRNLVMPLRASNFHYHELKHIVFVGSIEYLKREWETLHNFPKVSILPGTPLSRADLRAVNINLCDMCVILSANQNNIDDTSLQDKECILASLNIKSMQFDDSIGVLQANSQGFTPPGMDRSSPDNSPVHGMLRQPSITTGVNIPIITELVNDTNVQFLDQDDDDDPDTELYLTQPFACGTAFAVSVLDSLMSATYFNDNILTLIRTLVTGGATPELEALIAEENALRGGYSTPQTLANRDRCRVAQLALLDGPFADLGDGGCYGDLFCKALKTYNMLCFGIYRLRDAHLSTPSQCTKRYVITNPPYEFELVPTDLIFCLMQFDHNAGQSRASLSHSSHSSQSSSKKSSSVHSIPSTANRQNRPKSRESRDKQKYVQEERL

[8] = target: T3, Calcium-activated potassium channel subunit alpha-1; assay: Inhibition of Maxi-K (unknown origin) expressed in HEK293 cells at 30 uM measured by thallium flux assay relative to control
[9] = target: T4, Potassium channel subfamily T member 2 (Homo sapiens) (UniProt Q6UVM3); assay: Inhibition of Slick (unknown origin) expressed in HEK293 cells at 30 uM measured by thallium flux assay relative to control
T4 sequence (whole entry): T2 sequence (Q6UVM3 whole entry)

Structure (SMILES): CC1CCN(S(=O)(=O)N2CCN(CC(=O)Nc3cc(Cl)ccc3OC(C)C)CC2)CC1
- IC50 [1]: 5.1 µM

Structure (SMILES): COc1ccc(Cl)cc1NC(=O)CN1CCN(S(=O)(=O)N2CCN(C(=O)N3CCCCCC3)CC2)CC1
- EC50 [2]: > 10 µM

Structure (SMILES): CC1CCN(S(=O)(=O)N2CCN(CC(=O)Nc3cccc(F)c3)CC2)CC1
- EC50 [2]: 4.6 µM

Structure (SMILES): COc1ccc(Cl)cc1NC(=O)CN1CCN(S(=O)(=O)N2CCN(S(=O)(=O)N3CCC(F)(F)C3)CC2)CC1
- EC50 [2]: > 10 µM

Structure (SMILES): CCCOc1ccc(Cl)cc1NC(=O)CN1CCN(S(=O)(=O)N2CCC(C)CC2)CC1
- IC50 [3]: 3.1 µM
- IC50 [1]: 4.3 µM

Structure (SMILES): COc1ccc(Cl)cc1NC(=O)N1CC2(CCN(S(=O)(=O)N3CCC(C)CC3)CC2)C1
- EC50 [2]: > 10 µM

Structure (SMILES): COc1ccc(Cl)cc1NC(=O)CN1CCN(S(=O)(=O)N2CCC(C)CC2)[C@@H](C)C1
- IC50 [1]: > 10 µM

Structure (SMILES): Cc1ccc(NC(=O)CN2CCN(S(=O)(=O)N3CCC(C)CC3)CC2)cc1
- EC50 [2]: 4.1 µM

Structure (SMILES): COc1ccc(F)cc1NC(=O)CN1CCN(S(=O)(=O)N2CCC(C)CC2)CC1
- IC50 [3]: 2.3 µM
- IC50 [1]: 4.9 µM

Structure (SMILES): COc1ccccc1NC(=O)CN1CCN(S(=O)(=O)N2CCC(C)CC2)CC1
- IC50 [1]: > 10 µM

Structure (SMILES): COc1ccc(Cl)cc1NC(=O)CN1CCN(S(=O)(=O)N2CCN(C(=O)N3CCCCC3)CC2)CC1
- EC50 [2]: > 10 µM

Structure (SMILES): COc1ccc(NC(=O)CN2CCN(S(=O)(=O)N3CCC(C)CC3)CC2)cc1
- EC50 [2]: > 10 µM

Structure (SMILES): CC1CCN(S(=O)(=O)N2CCN(CC(=O)Nc3cc(Cl)ccc3F)CC2)CC1
- EC50 [2]: 3.8 µM

Structure (SMILES): COc1ccc(Cl)cc1NC(=O)[C@H](C)N1CCN(S(=O)(=O)N2CCC(C(F)(F)F)CC2)CC1
- IC50 [4]: > 10 µM

Structure (SMILES): COc1ccc(Cl)cc1NC(=O)CN1CCN(S(=O)(=O)N2CCC(C)CC2)[C@H](C)C1
- IC50 [1]: 13 µM

Structure (SMILES): COc1ccc(C)cc1NC(=O)CN1CCN(S(=O)(=O)N2CCC(C)CC2)CC1
- IC50 [1]: > 10 µM

Structure (SMILES): COc1ccc(Cl)cc1NC(=O)CN1CCN(S(=O)(=O)N2CCC(C)CC2)CC1
- IC50 [5]: 1.6 µM
- IC50 [3]: 1.4 µM
- IC50 [6]: 1.7 µM
- IC50 [1]: 2.4 µM
- IC50 [4]: > 10 µM

Structure (SMILES): COc1ccc(Cl)cc1NC(=O)N1CCCN(S(=O)(=O)N2CCC(C)CC2)CC1
- IC50 [1]: 6.2 µM

Structure (SMILES): COc1ccc(Br)cc1NC(=O)CN1CCN(S(=O)(=O)N2CCC(C)CC2)CC1
- IC50 [1]: 1.4 µM

Structure (SMILES): COc1ccc(Cl)cc1NC(=O)CN1CCN(S(=O)(=O)N2CCC(C)CC2)C[C@@H]1C
- IC50 [3]: 2.1 µM
- IC50 [1]: 3.5 µM

Structure (SMILES): COc1ccc(Cl)cc1NC(=O)N1CC2(C1)CN(S(=O)(=O)N1CCC(C)CC1)C2
- IC50 [1]: > 10 µM

Structure (SMILES): COc1ccc(Cl)cc1NC(=O)CN(C)CCN(C)S(=O)(=O)N1CCC(C)CC1
- IC50 [1]: > 10 µM

Structure (SMILES): Cc1ccc(Cl)cc1NC(=O)CN1CCN(S(=O)(=O)N2CCC(C)CC2)CC1
- IC50 [1]: > 10 µM

Structure (SMILES): CCOc1ccc(Cl)cc1NC(=O)CN1CCN(S(=O)(=O)N2CCC(C)CC2)CC1
- IC50 [1]: 7.1 µM

Structure (SMILES): COc1ccc(Cl)cc1NC(=O)CN1CCN(S(=O)(=O)N2CCC(C)CC2)C[C@H]1C
- IC50 [5]: 1.9 µM
- IC50 [3]: 1.1 µM
- IC50 [6]: 1.7 µM
- IC50 [7]: > 10 µM
- Efficacy [8]: 32%
- Efficacy [9]: 50%
- IC50 [1]: 2.4 µM
- IC50 [4]: > 10 µM

Structure (SMILES): CCCC1CCN(C(=O)N2CCN(S(=O)(=O)N3CCN(CC(=O)Nc4cc(Cl)ccc4OC)CC3)CC2)CC1
- IC50 [1]: > 10 µM

Structure (SMILES): COc1ccc(C(F)(F)F)cc1NC(=O)CN1CCN(S(=O)(=O)N2CCC(C)CC2)CC1
- IC50 [7]: > 10 µM
- IC50 [4]: 4.1 µM
